We go through 35 compounds from patent publication US20060079453A1, “Hla binding peptides and their uses” (priority 2002, published 2006).

Where two headings read alike, the source gives them in different places. No end group written: not given here.

Assay in all cases: biochemical
One assay concerns the target H-2Dd (Mus musculus, UniProt P01900). The assay is classed as binding, murine.
A further assay addresses HLA-B*0702 (Homo sapiens, UniProt P01889). The assay is classed as binding. Conditions: B*0702 binding affinity (IC50).
For assay [1], the target named is HLA-DQ DQA1*0301/B*0301 (DQ7) (Homo sapiens, UniProt P01909+P01920, A209T/C70Q/DUP78-78/E183D/F237L/G63E/I129T/K197E/L178F/L74F/L98V/Q57E/Q76R/S185I/S97I/T49S/V73L). In kind it is binding.
The target in the next assay is H-2 Db (Mus musculus, UniProt P01899). The assay is classed as binding, murine. Conditions: Db.
H-2 Db, sequence (P61769 21-119): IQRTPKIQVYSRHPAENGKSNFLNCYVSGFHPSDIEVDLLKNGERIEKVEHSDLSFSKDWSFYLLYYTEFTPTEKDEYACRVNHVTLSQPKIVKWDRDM
H-2 Db, sequence (P01899 25-362): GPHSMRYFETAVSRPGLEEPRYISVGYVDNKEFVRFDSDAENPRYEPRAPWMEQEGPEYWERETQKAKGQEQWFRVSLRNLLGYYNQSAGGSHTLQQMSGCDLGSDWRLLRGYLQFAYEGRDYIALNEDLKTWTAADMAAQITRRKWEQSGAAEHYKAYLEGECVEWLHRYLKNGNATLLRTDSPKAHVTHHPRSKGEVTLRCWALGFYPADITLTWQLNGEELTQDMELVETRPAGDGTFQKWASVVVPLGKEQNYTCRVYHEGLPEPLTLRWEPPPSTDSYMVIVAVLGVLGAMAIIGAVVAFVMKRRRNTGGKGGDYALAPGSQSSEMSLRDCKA

H-2Dd, sequence (P01900 25-365): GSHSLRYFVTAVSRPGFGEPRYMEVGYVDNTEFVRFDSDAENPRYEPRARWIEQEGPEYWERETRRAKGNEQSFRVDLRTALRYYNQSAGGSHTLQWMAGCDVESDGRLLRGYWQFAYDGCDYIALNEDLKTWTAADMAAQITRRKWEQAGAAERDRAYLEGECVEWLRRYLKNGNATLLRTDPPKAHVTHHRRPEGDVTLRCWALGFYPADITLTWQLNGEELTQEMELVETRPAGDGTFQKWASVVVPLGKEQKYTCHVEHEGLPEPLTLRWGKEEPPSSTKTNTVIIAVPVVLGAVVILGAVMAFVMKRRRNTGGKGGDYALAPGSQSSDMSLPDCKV
H-2Dd, sequence (P61769 21-119, further chain): as the sequence (P61769 21-119) above

On to RGPYRAFVKI, for which the IC50 on H-2Dd is 3.9 nM. In turn, VPGPGPGL yielded an IC50 at HLA-B*0702 of 1520 nM. In the case of QKEDAAVTIYIEMLQN, the IC50 in assay [1] (read-out: DQB1*0301) came out at 515 nM.

On to RGKYRAFVTI, for which, on H-2Dd, the IC50 amounted to 67 nM. Same read-out and setting: with GGAYRLIVF the figure was 3.5 nM; with RGPGRAFYTI, 7.2 nM; with AGPYRAFVTI, 5 nM.

In turn, APAAPGPGPGA gave an IC50 at HLA-B*0702 of 811 nM. With RGPYRAAVTI, the IC50 at H-2Dd was 2 nM. GSDLVEALYLVCGER showed an IC50 in assay [1] of over 89300 nM. RPGPGPGAV gave an IC50 at HLA-B*0702 of 23 nM. As for CLKDRRNFDIIPEEIK, the IC50 in assay [1] (read-out: DQB1*0301) amounted to 19400 nM. RGPYRAFATI showed an IC50 at H-2Dd of 2.1 nM. For FSPRRNGYL, the IC50 on H-2Dd amounted to 2.7 nM. On to RGPYRAFVTK, for which the IC50 against H-2Dd was 91 nM. Take `CC[C@H](C)[C@H](NC(=O)[C@H](Cc1ccccc1)NC(=O)[C@H](CCC(N)=O)NC(=O)CNC(=O)[C@H](CC(N)=O)NC(=O)[C@H](CCC(N)=O)NC(=O)[C@@H]1CCCN1C(=O)[C@H](CCC(N)=O)NC(=O)[C@@H](N)Cc1ccccc1)C(=O)N[C@@H](Cc1c[nH]cn1)C(=O)N[C@@H](Cc1ccccc1)C(=O)N[C@@H](Cc1ccc(O)cc1)C(=O)O`: at H-2 Db, the IC50 is 280 nM.

On to KEDSHCAWTWRVEI, for which the IC50 in assay [1] (read-out: DQB1*0301) worked out at 4100 nM. Compound SGVENPGGYCM gave an IC50 against H-2 Db of 128 nM. The compound APRGPGPGAL [APRGPGPGAL] displayed an IC50 on HLA-B*0702 of 11 nM. At HLA-B*0702, APRTGPGPGL registered an IC50 of 15 nM. With RGPYRAYVTI, the IC50 on H-2Dd stood at 2.1 nM. On H-2Dd, RGAYRAFVTI yielded an IC50 of 3.4 nM.

In turn, APAGPGPGAPA registered an IC50 on HLA-B*0702 of 161 nM. As for RPRFRGPGPGF, the IC50 on HLA-B*0702 came to 9.7 nM. As to RGPYRAFVAI, on H-2Dd, the IC50 was 1.3 nM. For RMIQNSLTI, the IC50 against H-2 Db came out at 4.6 nM. On the same count and under the same terms, with RLIQNFLTI the figure was 40 nM. Turning to APGPGPGLL, the IC50 at HLA-B*0702 was found to be 299 nM.

Take SQVMNLHNL: at H-2 Db, the IC50 is 2.3 nM. The compound `CSCC[C@H](NC(=O)[C@H](C)NC(=O)[C@H](C)NC(=O)[C@H](Cc1ccc(O)cc1)NC(=O)[C@H](C)NC(=O)[C@H](C)NC(=O)[C@H](C)NC(=O)[C@H](C)N)C(=O)O` returned an IC50 against H-2 Db of over 44000 nM. Compound `CSCC[C@H](NC(=O)[C@H](C)NC(=O)[C@H](C)NC(=O)[C@H](C)NC(=O)[C@H](CC(N)=O)NC(=O)[C@H](C)NC(=O)[C@H](C)NC(=O)[C@H](C)NC(=O)[C@H](C)NC(=O)[C@H](C)NC(=O)[C@H](C)N)C(=O)O` registered an IC50 against H-2 Db of 257 nM. On HLA-B*0702, APRGPGPGL registered an IC50 of 4.9 nM. For the compound APGPGPGTAL [APGPGPGTAL], the IC50 at HLA-B*0702 is 81 nM. Regarding RGPFRAFVTI, the IC50 on H-2Dd turned out to be 0.78 nM. The compound WGPSLYSIL gave an IC50 against H-2Dd of 6.6 nM.
